Several values for one entry are separate records, joined by “and”; a condition that tells them apart may be missing. Identical values can stand only once.
How the values were obtained:
Assay type in all cases: biochemical
recombinant human TOP2A [1] = target: T1, recombinant human TOP2A (Homo sapiens, UniProt P11388); assay: DNA decatenation assay, recombinant TOP2A; conditions: enzyme expressed in HEK293F, n=3
T1 construct: Using recombinant full-length human TOP2A and TOP2B enzymes; YFP (N, cleaved yes); made in house; host or cells: HEK293F
Method: (§1) The human topoisomerase II decatenation assay was performed to determine the inhibitory effects of BNS-22 and new compounds as previously described with minor modifications[14],[36]. The assay was performed using recombinant human TOP2A or TOP2B generated using the HEK293F YFP-tag expression system as previously described[18],[19],[36]. Briefly, plasmids encoding YFP-TOP2A or YFP-TOP2B were transfected into HEK293F cells (Catalog number 11625019, Thermofisher Scientific), and TOP2 proteins were isolated from cell lysates by anti-YFP nanobody affinity chromatography. After elution by TEV protease cleavage, TOP2 proteins were FPLC purified by sequential cation exchange and size exclusion chromatography. Plasmid encoding TOP2B C88Y was generated by round-the-horn PCR mutagenesis and the sequence was verified by full-plasmid sequencing. Purified TOP2 proteins were stored in a storage buffer containing 20 mM HEPES pH 7.5, 500 mM NaCl, 0.5 mM TCEP, 25% (v/v) glycerol at -80 °C. For decatenation assays, purified TOP2 proteins were incubated with 200 ng kDNA (Topogen) in a reaction buffer containing 50 mM Tris−HCl (pH 8), 100 mM NaCl, 10 mM MgCl2, 0.5 mM DTT, 2 mM ATP, 0.1 mM tris(2-carboxyethyl)phosphine (TCEP), 5% (v/v) glycerol, 70 μg/mL bovine serum albumin, and 1/10 volume of each compound diluted in 10% DMSO (final DMSO concentration 1%) for 40 min at 37 °C. The reaction was then stopped by the addition of gel loading buffer (0.5 volumes of 60% (w/v) glycerol, 60 mM EDTA, 20 mM Tris−HCl (pH 7.5), 0.5 mg/mL bromophenol blue) and the samples were placed on ice. Reaction products were resolved by agarose gel electrophoresis in TBE buffer containing GelRed stain (Biotium). Gels were visualized using an iBright CL1000 (Thermofisher Scientific). Band intensities were quantified using FIJI, and the signal of the treated samples was normalized to the value of the control (untreated sample; 100%) present on the same gel. The normalized signal of three independent measurements was then expressed as mean ± SD. Each presented data point was obtained from distinct sample. Normalized values were plotted as a function of inhibitor concentration to determine IC50 values by nonlinear regression with variable slope using Prism 9 (GraphPad).

recombinant human TOP2B [2] = target: T2, recombinant human TOP2B (Homo sapiens, UniProt Q02880); assay: DNA decatenation assay, recombinant TOP2B
T2 construct: Using recombinant full-length human TOP2A and TOP2B enzymes; YFP (N, cleaved yes); made in house; host or cells: HEK293F
Method: as §1

recombinant human TOP2A [3] = target: T1, recombinant human TOP2A; assay: In vitro ATPase activity of TOP2A (coupled assay)
Method: (§2) Topoisomerase proteins were diluted to 500 nM in storage buffer containing 20 mM HEPES pH 7.5, 500 mM NaCl, 0.5 mM TCEP, 25% glycerol, and 0.2 mg/mL BSA prior to use. A coupled assay was used to measure TOP2-catalyzed ATP hydrolysis in vitro[37] in Costar 96-well plates (Corning Incorporated). […] Reaction plates were pre-warmed to 30 °C for 5 min and ATP was added last to initiate the reaction. The reaction plate was placed in a CLARIOstarPlus plate reader (BMG Labtech) to measure NADH fluorescence at 30 °C every 30 s over 120 cycles using a 340-60 excitation filter and a 480-100 emission filter. Background fluorescence signals calculated from wells containing no ATP were subtracted from each measurement. The slope of NADH fluorescence decay in each well was calculated using the MARS software (BMG Labtech) and reaction wells that lacked topoisomerase inhibitor to account for photobleaching of NADH fluorescence served as background subtraction. Each presented data point was obtained from distinct sample. Values were normalized to untreated controls and plotted as a function of inhibitor concentration to determine IC50 values using Prism 9 (GraphPad).

recombinant human TOP2B [4] = target: T2, recombinant human TOP2B; assay: In vitro ATPase activity of TOP2B (coupled assay)
Method: as §2

[5] = TOP2A IC50 divided by TOP2B IC50

T2 sequence (Q02880 1-1621 isoform Q02880-2): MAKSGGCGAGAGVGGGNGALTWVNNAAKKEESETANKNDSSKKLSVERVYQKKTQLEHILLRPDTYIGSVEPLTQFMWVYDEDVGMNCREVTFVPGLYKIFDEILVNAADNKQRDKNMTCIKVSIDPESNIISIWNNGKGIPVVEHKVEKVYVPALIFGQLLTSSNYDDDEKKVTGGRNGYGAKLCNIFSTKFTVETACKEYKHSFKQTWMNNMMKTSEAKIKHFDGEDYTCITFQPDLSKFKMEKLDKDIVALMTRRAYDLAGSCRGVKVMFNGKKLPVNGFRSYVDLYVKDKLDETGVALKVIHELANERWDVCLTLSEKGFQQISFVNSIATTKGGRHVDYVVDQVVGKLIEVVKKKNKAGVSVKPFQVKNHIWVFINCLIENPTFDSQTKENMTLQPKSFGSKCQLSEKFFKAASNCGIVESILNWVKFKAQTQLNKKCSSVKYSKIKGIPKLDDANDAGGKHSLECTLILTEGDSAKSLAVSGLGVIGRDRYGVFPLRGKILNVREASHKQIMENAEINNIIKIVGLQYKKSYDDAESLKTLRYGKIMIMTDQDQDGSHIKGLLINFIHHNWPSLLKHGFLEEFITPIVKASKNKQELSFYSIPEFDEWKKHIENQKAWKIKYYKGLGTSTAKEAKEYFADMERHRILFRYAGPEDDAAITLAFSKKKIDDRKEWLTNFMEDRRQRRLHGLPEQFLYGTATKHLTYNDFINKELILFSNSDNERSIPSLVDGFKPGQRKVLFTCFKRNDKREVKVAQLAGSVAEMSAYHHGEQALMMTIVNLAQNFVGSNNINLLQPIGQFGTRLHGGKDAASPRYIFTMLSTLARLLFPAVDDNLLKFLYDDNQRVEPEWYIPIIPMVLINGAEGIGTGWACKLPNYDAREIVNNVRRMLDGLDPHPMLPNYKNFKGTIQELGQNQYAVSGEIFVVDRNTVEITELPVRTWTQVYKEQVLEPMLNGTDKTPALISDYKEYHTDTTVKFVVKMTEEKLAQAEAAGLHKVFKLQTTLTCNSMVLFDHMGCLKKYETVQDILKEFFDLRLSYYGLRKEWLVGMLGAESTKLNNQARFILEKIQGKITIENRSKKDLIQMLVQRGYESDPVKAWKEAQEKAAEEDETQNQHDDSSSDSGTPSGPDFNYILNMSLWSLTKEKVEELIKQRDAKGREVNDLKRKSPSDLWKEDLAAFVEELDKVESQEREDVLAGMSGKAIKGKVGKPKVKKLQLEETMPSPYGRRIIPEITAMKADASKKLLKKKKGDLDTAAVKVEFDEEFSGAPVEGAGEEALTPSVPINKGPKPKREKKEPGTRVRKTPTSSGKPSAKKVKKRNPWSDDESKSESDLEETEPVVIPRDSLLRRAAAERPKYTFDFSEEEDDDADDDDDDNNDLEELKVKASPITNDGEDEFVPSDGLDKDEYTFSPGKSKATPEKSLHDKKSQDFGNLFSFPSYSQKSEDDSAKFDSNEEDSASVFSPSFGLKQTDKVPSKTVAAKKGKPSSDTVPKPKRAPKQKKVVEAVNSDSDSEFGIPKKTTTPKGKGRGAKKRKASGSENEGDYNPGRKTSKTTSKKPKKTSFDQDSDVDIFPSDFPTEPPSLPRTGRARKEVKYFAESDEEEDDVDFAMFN
T1 sequence (P11388 whole entry): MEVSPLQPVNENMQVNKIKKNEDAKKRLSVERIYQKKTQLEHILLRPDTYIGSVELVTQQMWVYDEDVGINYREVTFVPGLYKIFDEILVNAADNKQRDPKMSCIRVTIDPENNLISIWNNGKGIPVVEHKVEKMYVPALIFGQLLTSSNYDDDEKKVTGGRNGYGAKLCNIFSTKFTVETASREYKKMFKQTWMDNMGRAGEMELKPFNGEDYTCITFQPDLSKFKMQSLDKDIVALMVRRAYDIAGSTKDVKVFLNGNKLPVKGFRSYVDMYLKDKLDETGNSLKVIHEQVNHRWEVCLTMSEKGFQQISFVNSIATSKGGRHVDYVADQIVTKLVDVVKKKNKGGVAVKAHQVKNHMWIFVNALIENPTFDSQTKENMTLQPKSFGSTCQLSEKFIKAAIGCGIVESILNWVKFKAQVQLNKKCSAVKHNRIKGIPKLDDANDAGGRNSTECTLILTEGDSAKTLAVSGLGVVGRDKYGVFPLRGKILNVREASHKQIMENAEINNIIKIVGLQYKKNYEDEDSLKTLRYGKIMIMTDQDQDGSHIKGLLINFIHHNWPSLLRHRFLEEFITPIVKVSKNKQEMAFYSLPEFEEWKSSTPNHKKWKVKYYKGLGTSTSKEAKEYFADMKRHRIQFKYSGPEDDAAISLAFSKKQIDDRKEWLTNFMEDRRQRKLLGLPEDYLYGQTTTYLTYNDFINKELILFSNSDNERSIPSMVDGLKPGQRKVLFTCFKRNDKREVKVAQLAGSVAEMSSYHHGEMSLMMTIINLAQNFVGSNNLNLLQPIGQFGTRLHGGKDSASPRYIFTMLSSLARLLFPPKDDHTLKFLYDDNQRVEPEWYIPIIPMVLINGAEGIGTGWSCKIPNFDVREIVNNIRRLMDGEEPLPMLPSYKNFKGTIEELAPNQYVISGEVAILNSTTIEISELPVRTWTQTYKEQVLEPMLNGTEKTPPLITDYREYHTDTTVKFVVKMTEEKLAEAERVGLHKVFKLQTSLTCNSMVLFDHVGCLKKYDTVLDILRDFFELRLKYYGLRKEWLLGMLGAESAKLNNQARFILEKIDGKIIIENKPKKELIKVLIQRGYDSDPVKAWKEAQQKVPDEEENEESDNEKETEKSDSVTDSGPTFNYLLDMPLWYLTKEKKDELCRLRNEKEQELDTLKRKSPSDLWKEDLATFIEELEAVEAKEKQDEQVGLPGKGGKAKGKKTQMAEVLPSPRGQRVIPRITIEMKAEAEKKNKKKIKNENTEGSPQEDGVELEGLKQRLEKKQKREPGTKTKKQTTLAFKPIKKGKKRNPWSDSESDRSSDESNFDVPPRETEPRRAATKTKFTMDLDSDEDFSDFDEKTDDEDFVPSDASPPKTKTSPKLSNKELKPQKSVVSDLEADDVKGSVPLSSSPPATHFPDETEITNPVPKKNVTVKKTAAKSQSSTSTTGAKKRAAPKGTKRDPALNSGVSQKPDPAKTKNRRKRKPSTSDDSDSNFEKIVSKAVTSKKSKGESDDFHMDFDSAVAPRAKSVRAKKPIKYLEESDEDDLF

CCCc1cc(=O)oc2c(C(=O)N3CCCc4ccccc43)c(OCCO)ccc12 [5c]
IC50 (recombinant human TOP2A [1]): 3210 nM | remaining activity at 0.059 µM (recombinant human TOP2B [2]; 0.059 μM, independent replicates, read-out: Normalized % TOP2B activity, decatenation): 106% | remaining activity at 0.117 µM (recombinant human TOP2B [2]; 0.117 μM, independent replicates, read-out: Normalized % TOP2B activity, decatenation): 112% | remaining activity at 0.938 µM (recombinant human TOP2B [2]; 0.938 μM, independent replicates, read-out: Normalized % TOP2B activity, decatenation): 66.9% | remaining activity at 1.875 µM (recombinant human TOP2B [2]; 1.875 μM, independent replicates, read-out: Normalized % TOP2B activity, decatenation): 29.8% | SRbeta (SRTOP2B), decatenation activity (recombinant human TOP2B [2]; [5]): 2.2 | IC50 (recombinant human TOP2B [2]; enzyme expressed in HEK293F, n=3): 1430 nM | remaining activity at 0.03125 µM (recombinant human TOP2A [3]; 0.03125 μM, independent replicates, read-out: Normalized % TOP2A activity, ATPase): 97.4% | remaining activity at 0.0625 µM (recombinant human TOP2A [3]; 0.0625 μM, independent replicates, read-out: Normalized % TOP2A activity, ATPase): 86.8% | remaining activity at 0.125 µM (recombinant human TOP2A [3]; 0.125 μM, independent replicates, read-out: Normalized % TOP2A activity, ATPase): 79.9% | remaining activity at 0.25 µM (recombinant human TOP2A [3]; 0.25 μM, independent replicates, read-out: Normalized % TOP2A activity, ATPase): 62.7% | remaining activity at 0.5 µM (recombinant human TOP2A [3]; 0.5 μM, independent replicates, read-out: Normalized % TOP2A activity, ATPase): 45.9% | remaining activity at 1 µM (recombinant human TOP2A [3]; 1 μM, independent replicates, read-out: Normalized % TOP2A activity, ATPase): 25.8% | remaining activity at 2 µM (recombinant human TOP2A [3]; 2 μM, independent replicates, read-out: Normalized % TOP2A activity, ATPase): 11.6% | remaining activity at 4 µM (recombinant human TOP2A [3]; 4 μM, independent replicates, read-out: Normalized % TOP2A activity, ATPase): 6.58% | remaining activity at 8 µM (recombinant human TOP2A [3]; 8 μM, independent replicates, read-out: Normalized % TOP2A activity, ATPase): 3.17% | IC50 (recombinant human TOP2A [3]; n=3): 1540 nM | remaining activity at 0.03125 µM (recombinant human TOP2B [4]; 0.03125 μM, independent replicates, read-out: Normalized % TOP2B activity, ATPase): 99.9% | remaining activity at 0.0625 µM (recombinant human TOP2B [4]; 0.0625 μM, independent replicates, read-out: Normalized % TOP2B activity, ATPase): 98.5% | remaining activity at 0.125 µM (recombinant human TOP2B [4]; 0.125 μM, independent replicates, read-out: Normalized % TOP2B activity, ATPase): 96.8% | remaining activity at 0.25 µM (recombinant human TOP2B [4]; 0.25 μM, independent replicates, read-out: Normalized % TOP2B activity, ATPase): 89.9% | remaining activity at 0.5 µM (recombinant human TOP2B [4]; 0.5 μM, independent replicates, read-out: Normalized % TOP2B activity, ATPase): 77% | remaining activity at 1 µM (recombinant human TOP2B [4]; 1 μM, independent replicates, read-out: Normalized % TOP2B activity, ATPase): 61.7% | remaining activity at 2 µM (recombinant human TOP2B [4]; 2 μM, independent replicates, read-out: Normalized % TOP2B activity, ATPase): 39.1% | remaining activity at 4 µM (recombinant human TOP2B [4]; 4 μM, independent replicates, read-out: Normalized % TOP2B activity, ATPase): 16.4% | remaining activity at 8 µM (recombinant human TOP2B [4]; 8 μM, independent replicates, read-out: Normalized % TOP2B activity, ATPase): 6.04% | SRbeta (SRTOP2B), TOP2 ATPase activity (recombinant human TOP2B [4]; [5]): 3.8 | IC50 (recombinant human TOP2B [4]; n=3): 400 nM and 410 nM
